According to US20220183290A1, “CHEMICALS WHICH ALTER THE PRODUCTION OF METABOLITES IN CULTIVATED PLANTS” (priority 2017, published 2022):

Tests used:
[1] = system: Cannabis sp. hemp varietal clones (Happy Camper); assay: Example 1: indoor cultivation experiment, elicitor treatments, secondary metabolite content of flowers; assay type: in vivo; settings: for terpene production (in words): applied alone or in conjunction with other elicitor treatments; for Total terpene production, change: either MeJA and/or SA (pooled) vs control or si only
Source text: Applicant performed an indoor cultivation experiment with 30 identical Cannabis sp. hemp varietal clones (Happy Camper, CBDRx LLC, Colorado). Each of the thirty plants was randomly assigned to one of six treatment groups to test the efficacy and effectiveness of each elicitor compound in isolation or in combination. Plants were maintained in an isolated indoor growing environment under eight, 600-watt double-ended electronic high pressure sodium lamps (Gavita International B.V) under a photoperiod of 12 hours of light per 24-hour day and potted in 1-gallon black plastic pots with a 55% coco coir/45% perlite media (Miller Soils LLC, Longmont, Colo., USA), then transplanted into 10-gallon fabric pots (Smart Pot, High Caliper Growing, USA) filled with a mixture of 75% coco coir and 25% cork (DNA-Mills Ltd, London, England), irrigated as needed with tap water and fertilized consistently to maintain good health with a 4-20-39 base nutrient supplemented with 15-0-0 Calcium Nitrate and commercially available magnesium sulfate (Hydro Gardens International, Colorado Springs, Colo.) at a rate of 300-500 ppm (TDS) as needed. A microbial inoculant (Tribus Original, Impello Biosciences, Ft. Collins, Colo.) was applied at a rate of 1 mL/gallon of nutrient solution every watering to improve plant health. Drip emitters and an automated watering system supplied water and nutrients equally to each plant. Temperatures in the growing environment were maintained at 75° F.±15° F. with a relative humidity range of 30-60%. Every 14 days of growth, all plants were supplemented with a fish protein hydrolysate at a rate of 5 ml/gallon of the previously mentioned nutrient solution to improve nutrition (Innate Bloom 4-2-1, Impello Biosciences, Colorado).
Treatment groups included (1) applications of MeJA as a foliar spray at a concentration of 7.5 mM, (2) SA as a foliar spray at a concentration of 0.5 mM, (3) SiA as a root drench at a concentration of 3 mM, (4) MeJA as a foliar spray at a concentration of 7.5 mM and a root drench of SiA at a concentration of 3 mM, and (5) MeJA as a foliar spray at a concentration of 7.5 mM and a root drench of SiA at a concentration of 3 mM and foliar applications of SA at a concentration of 0.5 mM. The control group was not treated with any applications aside from normal fertilization. Foliar applications of MeJA were performed in the morning hours, within 30 minutes of daybreak, with applications covering plant leaves until dripping. Applications of SA for all SA treatment groups were performed in the morning hours, within 30 minutes of daybreak, with applications covering plant leaves until dripping. Applications of SiA were performed by hand additions of SiA mixtures at the desired concentration to the plant roots of treatment plants; control plants were treated with plain water in the same volume at the same time without the addition of SiA.
7.5 mM solutions of MeJA (mixture of isomers) were prepared in 1-liter volumes using 93% purity MeJA stock solution (TCI America, CAS #[…]) added to reverse osmosis water dropwise with a pipettor while stirring. The pH of the final solution was not adjusted. 0.5 mM solutions of SA were prepared from a 0.5M stock solution, which was prepared using Salicylic Acid powder (ThermoFisher Scientific, CAS #69-72-7), dissolved in 200-proof anhydrous EtOH, denatured (VWR Life Sciences) and stored in a sealed glass bottle. Plant-useable solution was prepared by diluting 1000 μL, of the stock SA solution in 999 mL of reverse osmosis water. Foliar applications of MeJA and SA were made with a 1-L volume low-pressure hand-pump sprayer (Mondi Products LTD, Canada). Silicic Acid solutions were prepared as needed using Silicic Acid stock powder (extra pure light DAB, Millipore Sigma, CAS #7699-41-4), dissolved in reverse osmosis water to the desired final concentration.
Plants were maintained under identical conditions in the same growing environment. […]

[2] = system: plants from clone (Charlotte x Tangie); assay: Example 4: flower yield / plant weight with varying concentrations of MeJA foliar spray; assay type: in vivo, Cannabis sativa
Source text: Example 4: Assessment of Flower Yield in plants treated with varying concentrations of MeJA. […] In turn, we designed an experiment to evaluate the efficacy and effectiveness of applying MeJA as a foliar spray to plants in different concentrations.
Fourteen (14) identical plants from clone (Charlotte x Tangie, CBDRx) were cultivated in 1-gallon black plastic pots in a media mixture of 55% coco coir, 45% perlite (Miller Soils LLC, Colorado). Plants were rooted in 1-inch A-OK rockwool cubes (Grodan, B.V.) uniformly prior to transplant into the 1-gallon pots. At the time of transplant, plants were also transitioned from a photoperiod of 18 hours of light per day to a photoperiod of 12 hours of light per day to induce flowering. Each plant was maintained with a standard, commercially available 3-part (4-20-39, CaNO3, MgSO4) nutrient solution at a recommended rate of 350 ppm (Hydro Gardens International, CO), hand watered as needed with 1 L per plant. Plants were randomly assigned to one of four groups, including three treatment groups and one control group: 0 mM MeJA (control), 5 mM MeJA (low), 7.5 mM MeJA (med), and 10 mM MeJA (high). Plants were maintained under identical environmental conditions on a 4′×8′ black plastic table (Botanicare, USA) under 1200 w of light (Gavita Inc, Ne). […]

[3] = day 28, MeJA alone or in conjunction with other elicitors vs non-MeJA treatment, p≤0.05

| Compound | terpene production (in words) [1] | THCA production (in words) ([1]; applied independently without supplemental MeJA applications) | Total terpene production, change ([1]; day 28, p≤0.05) | THCA, change ([1]; day 63, SA treatment plants vs control plants, p≤0.05) [%] | impact on plant performance ([2]; exogenous foliar applications, 5-10 mM MeJA) | differences in weights between the treatment groups ([2]; foliar spray 0, 5, 7.5, 10 mM MeJA every 14 days from day 7 of the reproductive cycle) | Total cannabinoids concentration, change [1, 3] | total CBD concentration, change [1, 3] | total THC concentration, change [1, 3] | Total CBDA, change ([1]; day 42, MeJA treatments vs no MeJA treatments, p≤0.0005) | Total THC-A, change ([1]; day 42, MeJA treatments vs no MeJA treatments, significance less than 0.0005) | Total cannabinoids (THC, THCA, CBD, CBDA), change ([1]; day 42, groups with MeJA alone or in combination vs groups without MeJA, p≤0.001) | total cannabinoid concentration, change ([1]; day 42, plants that received MeJA treatments (MeJA or MeJA+SiA or MeJA+SiA+SA) vs control group, p≤0.005) | total cannabinoid contents, change ([1]; day 63, some sort of MeJA treatment (MeJA only, MeJA with SiA, or ALL) vs control group, p≤0.05) | total cannabinoid contents, change ([1]; day 63, some sort of MeJA treatment (MeJA only, MeJA with SiA, or ALL) vs no MeJA (control, SA only, SiA only), p≤0.000001) | CBD content, change ([1]; day 63, vs control plants, p≤0.05 (ALL: p≤0.01)) | cannabinoid production (in words) ([1]; throughout the flowering cycle, applied alone or in conjunction with other treatments) |
| --- | --- | --- | --- | --- | --- | --- | --- | --- | --- | --- | --- | --- | --- | --- | --- | --- | --- |
| O=C(O)c1ccccc1O [SA, Salicylic acid] | increased terpene production | decreased THCA production | +35% | −45.67 |  |  |  |  |  |  |  |  |  |  |  |  |  |
| CC/C=C\CC1C(=O)CCC1CC(=O)OC (stereo not shown) [MeJA, Methyl Jasmonate] | increased terpene production |  | +35% |  | did not negatively impact plant performance | No significant differences | +61.96% | +61.49% | +61.30% | +54.99% | +56.82% | +54.67% | +41.49% | +33.11% | +58.64% | +23.27% | consistently increased cannabinoid production |
